“And” between values parts separate entries of the source, which are not always exact repeats. Equal entries are not always repeated.
Test system: heat hypersensitivity of λ-carrageenan-injected right hind paws of mice
Experiment: λ-carrageenan-induced paw inflammation, heat hypersensitivity on hotplate (57° C.), time until first response
Assay type: in vivo
Conditions: for Response time at 3.5 h, avg: average of n=5 animals; for Response time at 3.5 h, avg / Response time at 3.5 h: 10 mg/kg ip 30 min before 1% λ-carrageenan, hotplate 57° C., 3.5 h after carrageenan; for Response time at 3.5 h: individual animal, 10 mg/kg; for average response time compared with pretreatment baseline response time: n=5 animals, 10 mg/kg ip, 3.5 h after λ-carrageenan
Experimental: Intra plantar injection of 1% […] may be used to induce local inflammation to the paws of test subject mice. In general, local inflammation is expressed as paw swelling and increased sensitivity to heat stimuli. Therefore, the effect of a test item on changes in heat hypersensitivity can be assessed. Using the protocol set forth, the therapeutic effect of the compounds of Formula XVIII and XXII were evaluated.
Animals were dosed with a test compound at time zero (control where given vehicle only) at 10 mg/kg ip (test item was dissolved in a 20% […] solution). After 30 minutes the animals were slightly anesthetized with isoflurane, and 0.1 ml of a 1% λ-carrageenan suspension in Distilled Water was injected into the plantar side of the right hind paws of the mice. After 3.5 hours after the λ-carrageenan administration, the animals were placed on a hotplate apparatus maintained at 57° C., and the time until the first response was recorded.

`O=C(O[C@H]1[C@@H]2[C@@H]3C[C@@H](C[C@H]1N3Cc1ccc3c(c1)OCO3)CN2C(=O)c1ccc(F)cn1)C1CC1` (relative stereo) [Compound of Formula XVIII, (2R*,3R*,3aS*,6S*,7aS*)-1-(benzo[d][1,3]dioxol-5-ylmethyl)-4-(5-fluoropicolinoyl)octahydro-1H-2,6-methanopyrrolo[3,2-b]pyridin-3-yl cyclopropanecarboxylate] was tested, and the “Response time at 3.5 h, avg” value was 14.6 s, the “Response time at 3.5 h” value was 16 sec (2×) and 14 sec and 12 sec and 15 sec and the “average response time compared with pretreatment baseline response time” value was “exceeded the pretreatment baseline response time”.

With `COCC(=O)N1C[C@@H]2C[C@@H]3C1[C@@H](O)[C@H](C2)N3Cc1cccc(C(N)=O)c1` (relative stereo) [Compound of Formula XXII, 3-(((2S*,3S*,6R*,7aR*)-3-hydroxy-4-(2-methoxyacetyl)octahydro-1H-2,6-methanopyrrolo[3,2-b]pyridin-1-yl)methyl)benzamide] the “Response time at 3.5 h, avg” value was 12.2 s, the “Response time at 3.5 h” value was 12 sec (2×) and 14 sec and 13 sec and 10 sec and the “average response time compared with pretreatment baseline response time” value was “exceeded the pretreatment baseline response time”.

Source: patent US10766898B2, “Therapeutic compound for pain and synthesis thereof” (priority 2015, dated 2020)
